Measurements as given in ChEMBL document CHEMBL1132737, “Oxygenated chalcones and bischalcones as potential antimalarial agents” (2000).

What was measured:
Format in all cases: functional
Plasmodium berghei [1] = test: Parasitaemia at day 11 after combination dose at 50 mg/kg/day with 15 mg/kg/day […] over 4 days
Plasmodium berghei [2] = test: Parasitemia at day 13 after combination dose at 50 mg/kg/day with 15 mg/kg/day […] over 4 days
Plasmodium berghei [3] = test: Parasitaemia at day 15 after combination dose at 50 mg/kg/day with 15 mg/kg/day […] over 4 days
Plasmodium berghei [4] = test: Parasitaemia at day 17 after combination dose at 50 mg/kg/day with 15 mg/kg/day […] over 4 days
Plasmodium berghei [5] = test: Parasitemia at day 5 after combination dose at 50 mg/kg/day with 15 mg/kg/day […] over 4 days
Plasmodium berghei [6] = test: Parasitaemia at day 7 after combination dose at 50 mg/kg/day with 15 mg/kg/day […] over 4 days
Plasmodium berghei [7] = test: Parasitaemia at day 9 after combination dose at 50 mg/kg/day with 15 mg/kg/day […] over 4 days
Plasmodium berghei [8] = test: Parasitaemia at day 11 after 50 mg/kg/day dose over 4 days
Plasmodium berghei [9] = test: Parasitaemia at day 13 after 50 mg/kg/day dose over 4 days
Plasmodium berghei [10] = test: Parasitemia at day 17 after 50 mg/kg/day dose over 4 days
Plasmodium berghei [11] = test: Parasitaemia at day 5 after 50 mg/kg/day dose over 4 days
Plasmodium berghei [12] = test: Parasitemia at day 7 after 50 mg/kg/day dose over 4 days
Plasmodium berghei [13] = test: Parasitemia at day 9 after 50 mg/kg/day dose over 4 days
Plasmodium berghei [14] = test: In vivo activity at day 5 against chloroquine-sensitive Plasmodium berghei infected mice (Mus musculus) at 100 mg/kg intraperitoneal dose over 4 days
Plasmodium berghei [15] = test: In vivo activity at day 7 against chloroquine-sensitive Plasmodium berghei infected mice (Mus musculus) at 100 mg/kg intraperitoneal dose over 4 days
Plasmodium berghei [16] = test: In vivo activity at day 9 against chloroquine-sensitive Plasmodium berghei infected mice (Mus musculus) at 100 mg/kg intraperitoneal dose over 4 days
Plasmodium berghei [17] = test: Parasitemia at day 15 after 50 mg/kg/day dose over 4 days
Plasmodium berghei [18] = test: In vivo activity after 13 days against chloroquine-sensitive Plasmodium berghei infected mice (Mus musculus) at 100 mg/kg intraperitoneal dose over 4 days
Plasmodium berghei [19] = test: In vivo activity after 11 days against chloroquine-sensitive Plasmodium berghei infected mice (Mus musculus) at 100 mg/kg intraperitoneal dose over 4 days
Plasmodium berghei [20] = test: In vivo activity after 15 days against chloroquine-sensitive Plasmodium berghei infected mice (Mus musculus) at 100 mg/kg intraperitoneal dose over 4 days
Plasmodium berghei [21] = test: Parasitaemia at day 19 after combination dose at 50 mg/kg/day with 15 mg/kg/day […] over 4 days

Compound	Parasitaemia (Plasmodium berghei [1])	Parasitaemia (Plasmodium berghei [2])	Parasitaemia (Plasmodium berghei [3])	Parasitaemia (Plasmodium berghei [4])	Parasitaemia (Plasmodium berghei [5])	Parasitaemia (Plasmodium berghei [6])	Parasitaemia (Plasmodium berghei [7])	Parasitaemia (Plasmodium berghei [8])	Parasitaemia (Plasmodium berghei [9])	Parasitaemia (Plasmodium berghei [11])	Parasitaemia (Plasmodium berghei [12])	Parasitaemia (Plasmodium berghei [13])	Parasitaemia (Plasmodium berghei [14])	Parasitaemia (Plasmodium berghei [15])	Parasitaemia (Plasmodium berghei [16])	Parasitaemia (Plasmodium berghei [17])	Parasitaemia (Plasmodium berghei [18])	Parasitaemia (Plasmodium berghei [19])	Parasitaemia (Plasmodium berghei [20])	also measured
COc1ccc(/C=C/C(=O)c2ccc(OCCCOc3ccc(C(=O)/C=C/c4ccc(OC)cc4OC)cc3)cc2)c(OC)c1	7.7%	9.5%	13.7%	18%	1.2%	2.3%	3.76%	8.4%	10%	1.3%	2.2%	4.8%	3.2%	4.7%	8%	12.5%	–	–	–	Parasitaemia (Plasmodium berghei [10]): 16%
COc1ccc(/C=C/C(=O)c2ccc(OCCCCOc3ccc(C(=O)/C=C/c4ccc(OC)cc4OC)cc3)cc2)c(OC)c1	4.9%	7.5%	13%	18%	0.2%	0.6%	4%	8%	7.2%	2.6%	3.5%	3.4%	1.5%	2%	2.4%	8.3%	6.6%	5.2%	9.5%	–
CC(=O)c1ccc(OCCCOc2ccc(C(=O)/C=C/c3ccc4c(c3)OCO4)cc2)cc1	3%	5.1%	7%	13%	0%	0.04%	1.96%	6.7%	7.8%	0.7%	1.8%	2.2%	0%	0.35%	1.7%	11.5%	3%	2.75%	3.85%	–
COc1ccc(/C=C/C(=O)c2ccc(OCOc3ccc(C(=O)/C=C/c4ccc(OC)cc4OC)cc3)cc2)c(OC)c1	–	–	–	–	–	–	–	–	–	–	–	–	3.4%	5%	2%	–	–	–	–	–
COc1ccc(/C=C/C(=O)c2ccc(OCCCCOc3ccc(C(=O)/C=C/c4ccc(OC)c(OC)c4)cc3)cc2)cc1OC	2.7%	7.5%	–	–	0.002%	0.3%	1.8%	5%	6.9%	1.2%	2.5%	2.5%	0%	0%	0.7%	13.2%	1.5%	1%	2%	–
COc1ccc(/C=C/C(=O)c2ccc(OCCCOc3ccc(C(=O)/C=C/c4ccc(OC)c(OC)c4)cc3)cc2)cc1OC	7.6%	12.2%	18%	24%	0%	1.3%	1.9%	5%	10.4%	0.74%	2.4%	2%	0.01%	0.05%	0.6%	–	1.5%	0.9%	3%	–
COc1cccc(/C=C/C(=O)c2ccc(OCCCOc3ccc(C(=O)/C=C/c4cccc(OC)c4)cc3)cc2)c1	3%	4.6%	7%	9.5%	0.08%	1.1%	3%	4.2%	5.4%	1.75%	1.9%	4.2%	0%	0.52%	1%	13%	1.81%	1.8%	1.7%	Parasitaemia (Plasmodium berghei [21]): 13%; Parasitaemia (Plasmodium berghei [10]): 19%
COc1ccc(/C=C/C(=O)c2ccc(OCCCCCCOc3ccc(C(=O)/C=C/c4ccc(OC)c(OC)c4)cc3)cc2)cc1OC	2.3%	6%	7.5%	11%	0%	0.06%	1.8%	4.3%	7.3%	0.8%	1.6%	2%	0%	0.16%	1.3%	15%	3.1%	2.1%	4.25%	–
CC(=O)c1ccc(OCCCCCCOc2ccc(C(=O)/C=C/c3ccc4c(c3)OCO4)cc2)cc1	3.2%	5.5%	8%	–	0.02%	2%	3.2%	6.5%	9%	2.2%	3.2%	4.8%	1%	2.1%	4%	10%	–	6.3%	–	–
COc1cccc(/C=C/C(=O)c2ccc(OCCCCCCOc3ccc(C(=O)/C=C/c4cccc(OC)c4)cc3)cc2)c1	2%	3.6%	6.6%	11.5%	0%	0%	0.14%	9.5%	13%	1.8%	3.2%	7.9%	2.1%	3.4%	6.8%	–	–	11%	–	–
COc1ccc(/C=C/C(=O)c2ccc(OCOc3ccc(C(=O)/C=C/c4ccc(OC)c(OC)c4)cc3)cc2)cc1OC	0.8%	1.4%	4.4%	11.6%	0%	0%	0.3%	10.2%	14.3%	1.5%	2.3%	5.8%	2.8%	5.6%	7.25%	–	–	–	–	Parasitaemia (Plasmodium berghei [21]): 22.6%
COc1cccc(/C=C/C(=O)c2ccc(OCCCCOc3ccc(C(=O)/C=C/c4cccc(OC)c4)cc3)cc2)c1	5%	7.5%	10%	16%	0.8%	3.2%	2.9%	6.6%	10.8%	1.9%	2.1%	5.7%	1.5%	2%	3.9%	13.3%	19%	6.4%	–	–
